Here are results for 35 compounds from patent US7632829B2, “Diazepan derivatives” (Hoffmann-La Roche Inc., priority 2006, dated 2009).

The term IC50 denotes the concentration at which inhibition is half-maximal.

This test deals with T1, human chemokine receptor 2 isoform B (Homo sapiens, UniProt P41597).
T1 construct: host or cells: CHOK1-CCR2B-A5 (CHO-K1)
T1 sequence (P41597 1-360 isoform P41597-2): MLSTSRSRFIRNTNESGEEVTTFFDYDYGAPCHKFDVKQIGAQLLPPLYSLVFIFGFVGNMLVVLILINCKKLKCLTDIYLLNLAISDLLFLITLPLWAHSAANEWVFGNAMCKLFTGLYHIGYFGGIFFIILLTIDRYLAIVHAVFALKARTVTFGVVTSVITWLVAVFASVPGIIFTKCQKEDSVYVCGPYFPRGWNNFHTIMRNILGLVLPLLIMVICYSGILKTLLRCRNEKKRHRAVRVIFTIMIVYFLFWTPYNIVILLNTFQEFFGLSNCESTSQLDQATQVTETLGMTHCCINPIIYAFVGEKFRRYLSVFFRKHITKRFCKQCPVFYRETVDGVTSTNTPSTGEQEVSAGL
Kind of test: Calcium mobilization assay (FLIPR, CHOK1-CCR2B-A5 cells, 20 nM MCP-1). The format is cell-based. To be noted: Ca mobilisation assay, CCR2, antagonist activity vs 20 nM MCP-1. As to the method: CHOK1-CCR2B-A5 cells (from Euroscreen) stably overexpressing the human chemokine receptor 2 isoform B were cultured in Nutrient Hams F12 medium supplemented with 5% FBS, 100 U/ml penicillin, 100 μg/ml streptomycin, 400 μg/ml G418 and 5 μg/ml puromycin.
For the assay cells were grown overnight in 384-well black clear flat bottom polystyrene plates (Costar) at 37° C. at 5% CO2. After washing with DMEM, 20 mM Hepes, 2.5 mM probenecid, 0.1% BSA (DMEM assay buffer) cells were loaded with 4 μM Fluo-4 in the same DMEM assay buffer for 2 hours at 30° C. Excess dye was removed and cells were washed with DMEM assay buffer. 384-well compound plates were prepared with DMEM assay buffer/0.5% DMSO with or without various concentrations of test compounds. Usually compounds were tested for agonist and antagonist activity.
Test compounds were added to the assay plate and agonist activity was monitored as fluorescence for 80 seconds with a FLIPR (488 nm excitation; 510-570 nm emission; Molecular Devices). After 20-30 min. of incubation at 30° C., 20 nM MCP-1 (R&D; Roche) was added and fluorescence was monitored again for 80 seconds. Increases in intracellular calcium are reported as maximum fluorescence after agonist exposure minus basal fluorescence before exposure. Antagonist activity is indicated as inhibitor concentration required for 50% inhibition of specific calcium increases.
Take `O=C(/C=C/c1ccc(F)c(Cl)c1)N1CCC(=O)N(C[C@@H](O)CN2CCC3(CC3)C(O)C2)CC1` (stereo partly drawn) [Example 342, 1-[(E)-3-(3-Chloro-4-fluoro-phenyl)-acryloyl]-4-[(S)-2-hydroxy-3-((+)-4-hydroxy-6-aza-spiro[2.5]oct-6-yl)-propyl]-[1,4]diazepan-5-one]: the half-inhibitory concentration (IC50) turned out to be 3 nM. To `O=C(/C=C/c1ccc(Cl)c(Cl)c1)N1CCC(=O)N(CC(O)CN2CCC(F)CC2)CC1` (racemic) [Example 169, (rac)-1-[(E)-3-(3,4-Dichloro-phenyl)-acryloyl]-4-[3-(4-fluoro-piperidin-1-yl)-2-hydroxy-propyl]-[1,4]diazepan-5-one] belongs 255 nM; to `O=C(/C=C/c1ccc(Cl)c(Cl)c1)N1CCC(=O)N(CCCN2CCS(=O)(=O)CC2)CC1` [Example 40, 1-[(E)-3-(3,4-Dichloro-phenyl)-acryloyl]-4-[3-(1,1-dioxo-thiomorpholin-4-yl)-propyl]-[1,4]diazepan-5-one], 611 nM; to `CC1(CO)CCN(CCCCN2CCN(C(=O)C=Cc3ccc(Cl)c(F)c3)CCC2=O)CC1O` (centres unmarked) [Example 412], 342 nM. For `C[C@@H]1CN(CC(O)CN2CCN(C(=O)/C=C/c3ccc(Cl)c(Cl)c3)CCC2=O)CC[C@H]1O` (mixture of isomers) [Example 316, (rac)-1-[(E)-3-(3,4-Dichloro-phenyl)-acryloyl]-4-[2-hydroxy-3-(trans-4-hydroxy-3-methyl-piperidin-1-yl)-propyl]-[1,4]diazepan-5-one], the 50% inhibitory concentration (IC50) was 755 nM. For the compound `CC(C)N1CCN(CCCCN2CCN(C(=O)/C=C/c3ccc(Cl)c(Cl)c3)CCC2=O)CC1` [Example 436], the IC50 worked out at 746 nM.

`COCC1CC(OC)C(O)CN1CCCCN1CCN(C(=O)/C=C/c2ccc(Cl)c(Cl)c2)CCC1=O` (racemic) [Example 478]: the IC50 amounted to 998 nM. As to `O=C(/C=C/c1ccc(Cl)c(F)c1)N1CCC(=O)N(CCCN2CCC3(CC3)C(O)C2)CC1` (stereo not drawn) [Example 493, 1-[(E)-3-(4-Chloro-3-fluoro-phenyl)-acryloyl]-4-[3-((+)-4-hydroxy-6-aza-spiro[2.5]oct-6-yl)-propyl]-[1,4]diazepan-5-one], the IC50 worked out at 15 nM. With `CC1CCN(CCCN2CCN(C(=O)/C=C/c3ccc(Cl)c(Cl)c3)CCC2=O)CC1` [Example 50, 1-[(E)-3-(3,4-Dichloro-phenyl)-acryloyl]-4-[3-(4-methyl-piperidin-1-yl)-propyl]-[1,4]diazepan-5-one], the half-inhibitory concentration (IC50) amounted to 55 nM. To `O=C(C=Cc1ccc(Cl)c(Cl)c1)N1CCC(=O)N(CCNC2CCCCC2O)CC1` (centres unmarked) [Example 357] belongs 385 nM. For `COC(=O)NC1CCN(CCCCN2CCN(C(=O)/C=C/c3ccc(Cl)c(Cl)c3)CCC2=O)CC1` [Example 441], the IC50 was found to be 22 nM.

Take `O=C(/C=C/c1ccc(F)c(F)c1)N1CCC(=O)N(CCCN2CCCCC2)CC1` [Example 7, 1-[(E)-3-(3,4-Difluoro-phenyl)-acryloyl]-4-(3-piperidin-1-yl-propyl)-[1,4]diazepan-5-one]: the concentration for half-maximal inhibition (IC50) worked out at 1290 nM. Regarding `O=C1CC2(CCN(CCCN3CCN(C(=O)/C=C/c4ccc(F)c(Cl)c4)CCC3=O)CC2)CN1` [Example 198], the half-inhibitory concentration (IC50) came to 739 nM. For the compound `CC(C)N1CCN(CCCN2CCN(C(=O)/C=C/c3ccc(Cl)c(Cl)c3)CCC2=O)CC1` [Example 240], the IC50 was determined as 105 nM. Take `CC1(CO)CCN(CCCCN2CCN(C(=O)/C=C/c3ccc(Cl)c(Cl)c3)CCC2=O)CC1` (racemic) [Example 459]: the concentration for half-maximal inhibition (IC50) worked out at 267 nM. On to `O=C(/C=C/c1ccc(F)c(Cl)c1)N1CCC(=O)N(CCCN2CCCCC2CO)CC1` (racemic) [Example 210], for which the half-inhibitory concentration (IC50) is 1140 nM.

As for `COCC1CCC(O)CN1CCCCN1CCN(C(=O)/C=C/c2ccc(Cl)c(F)c2)CCC1=O` (racemic) [Example 418], the half-maximal inhibitory concentration (IC50) is 1470 nM.

Consider `COCC1CCCN(CC(O)CCN2CCN(C(=O)/C=C/c3ccc(Cl)c(Cl)c3)CCC2=O)C1` (racemic) [Example 361], for which the IC50 worked out at 226 nM. In the case of `CO[C@@H]1CN(CCCN2CCN(C(=O)/C=C/c3ccc(Cl)c(Cl)c3)CCC2=O)CC[C@@H]1CO` (racemic) [Example 269, (rac,cis)-1-[(E)-3-(3,4-Dichloro-phenyl)-acryloyl]-4-[3-(3-methoxy-4-hydroxymethyl-piperidin-1-yl)-propyl]-[1,4]diazepan-5-one], the IC50 was determined as 619 nM. With `O=C(/C=C/c1ccc(Cl)c(Cl)c1)N1CCC(=O)N(CCCN2CCOCC2)CC1` [Example 6, 1-[(E)-3-(3,4-Dichloro-phenyl)-acryloyl]-4-(3-morpholin-4-yl-propyl)-[1,4]diazepan-5-one], the half-inhibitory concentration (IC50) turned out to be 1310 nM.

In the case of `O=C(/C=C/c1ccc(Cl)c(Cl)c1)N1CCC(=O)N(CCCCN2CCC3(CCCO3)CC2)CC1` (racemic) [Example 467], the IC50 is 1160 nM. With `CC1(CO)CCCN1CCCCN1CCN(C(=O)/C=C/c2ccc(Cl)c(Cl)c2)CCC1=O` (racemic) [Example 462], the IC50 turned out to be 41 nM. Consider `C[C@@H]1CN(CCCN2CCCCC2)C(=O)CCN1C(=O)/C=C/c1ccc(Cl)c(Cl)c1` [Example 186, (R)-1-[(E)-3-(3,4-Dichloro-phenyl)-acryloyl]-2-methyl-4-(3-piperidin-1-yl-propyl)-[1,4]diazepan-5-one], for which the IC50 was 38 nM.

Regarding `O=C(/C=C/c1ccc(F)c(Cl)c1)N1CCC(=O)N(C[C@@H](O)CN2CC[C@@H](CO)[C@H](O)C2)CC1` (mixture of isomers) [Example 339, 1-[(E)-3-(3-Chloro-4-fluoro-phenyl)-acryloyl]-4-[(S)-2-hydroxy-3-(trans-3-hydroxy-4-hydroxymethyl-piperidin-1-yl)-propyl]-[1,4]diazepan-5-one], the IC50 is 1360 nM.

As to `O=C(/C=C/c1ccc2ccccc2c1)N1CCC(=O)N(CCCN2CCCCC2)CC1` [Example 157, 1-((E)-3-Naphthalen-2-yl-acryloyl)-4-(3-piperidin-1-yl-propyl)-[1,4]diazepan-5-one], the IC50 amounted to 703 nM. For `CC1C(O)CCCN1CCCN1CCN(C(=O)C=Cc2ccc(F)c(Cl)c2)CCC1=O` (mixture of isomers) [Example 209, (rac,cis)-1-[(E)-3-(3-Chloro-4-fluoro-phenyl)-acryloyl]-4-[3-(3-hydroxy-2-methyl-piperidin-1-yl)-propyl]-[1,4]diazepan-5-one], the IC50 was determined as 1390 nM.

Turning to `O=C(/C=C/c1ccc(Cl)c(Cl)c1)N1CCC(=O)N(CCC(O)CN2CCCCC2CO)CC1` (racemic) [Example 374], the IC50 turned out to be 580 nM.

Turning to `O=C(/C=C/c1ccc(F)c(Cl)c1)N1CCC(=O)N(CCCN2CCC3(CC3)C(O)C2)CC1` (stereo not drawn) [Example 189, 1-[(E)-3-(3-Chloro-4-fluoro-phenyl)-acryloyl]-4-[3-((-)-4-hydroxy-6-aza-spiro[2.5]oct-6-yl)-propyl]-[1,4]diazepan-5-one], the half-inhibitory concentration (IC50) came out at 8 nM. On to `CN(CCCCN1CCN(C(=O)/C=C/c2ccc(Cl)c(Cl)c2)CCC1=O)C1CCOCC1` [Example 10, 1-[(E)-3-(3,4-Dichloro-phenyl)-acryloyl]-4-{4-[methyl-(tetrahydro-pyran-4-yl)-amino]-butyl}-[1,4]diazepan-5-one], for which the IC50 was found to be 73 nM. In the case of `O=C1CC2(CCN(CCCN3CCN(C(=O)/C=C/c4ccc(Cl)c(Cl)c4)CCC3=O)CC2)CN1` [Example 88, 8-(3-{4-[(E)-3-(3,4-Dichloro-phenyl)-acryloyl]-7-oxo-[1,4]diazepan-1-yl}-propyl)-2,8-diaza-spiro[4.5]decan-3-one], the concentration for half-maximal inhibition (IC50) came out at 757 nM.

As to `O=C(C=Cc1ccc(Cl)c(Cl)c1)N1CCC(=O)N(CCCN2CCC(CO)C(O)C2)CC1` (mixture of isomers) [Example 266, (rac,cis)-1-[(E)-3-(3,4-Dichloro-phenyl)-acryloyl]-4-[3-(3-hydroxy-4-hydroxymethyl-piperidin-1-yl)-propyl]-[1,4]diazepan-5-one], the IC50 was 77 nM. As for `COCC1C(O)CCC(C)N1CCCCN1CCN(C(=O)C=Cc2ccc(Cl)c(Cl)c2)CCC1=O` (racemic) [Example 488, (rac,cis)-1-[(E)-3-(3,4-Dichloro-phenyl)-acryloyl]-4-[4-(3-hydroxy-2-methoxymethyl-6-methyl-piperidin-1-yl)-butyl]-[1,4]diazepan-5-one], the IC50 is 618 nM. As for `COCCN(C)CCCN1CCN(C(=O)/C=C/c2ccc(Cl)c(Cl)c2)CCC1=O` [Example 41, 1-[(E)-3-(3,4-Dichloro-phenyl)-acryloyl]-4-{3-[(2-methoxy-ethyl)-methyl-amino]-propyl}-[1,4]diazepan-5-one], the IC50 came out at 1180 nM. Turning to `CC1CN(CC(O)CN2CCN(C(=O)/C=C/c3ccc(Cl)c(Cl)c3)CCC2=O)CCC1O` (racemic) [Example 300], the concentration for half-maximal inhibition (IC50) worked out at 981 nM. The figure for `O=C(/C=C/c1ccc(F)c(Cl)c1)N1CCC(=O)N(CCCN2CCC(CO)CC2)CC1` [Example 212] is 437 nM.
